Measurements as given in patent US10745401B2, “Condensed lactam derivative” (Sumitomo Dainippon Pharma Co., Ltd., priority 2018, dated 2020).

Tests used:
[1] = molecular target: T1, human 5-HT1A receptor (Homo sapiens (Human), UniProt P08908); assay: Test 2: agonist activity for human 5-HT1A receptor ([35S]GTPγS binding); format: biochemical; details: for EC50: [35S]GTPγS binding, concentration at which half the activity of Emax was obtained; for Emax at 10 µM: agonist activity in the presence of 10 μM of compound, relative to 100 μmol/L 5-HT
How it was run: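 Membranes from CHO cells expressing human 5-HT1A incubated with compound, GDP-containing buffer and [35S]GTPγS for 60 min at room temperature. Bound radioactivity collected by glass-fibre filtration and counted by liquid scintillation; agonist activity derived from a formula.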

[2] = molecular target: human D2 receptor (Homo sapiens (Human), UniProt P14416); assay: Test 1: binding activity for human D2 receptor ([3H]Spiperone, CHO cell membrane fraction); details: human D2 receptor, [3H]Spiperone
How it was run: (§1)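 CHO-cell membranes with [3H]ketanserin (5-HT2A) or [3H]spiperone (D2) were incubated with compound for 60 min at room temperature, then filtered, and bound radioactivity was counted by scintillation. Ki = IC50/(1+S/Kd), with ligand Kd from saturation binding on the same membranes.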

[3] = molecular target: T2, hERG channel (Homo sapiens (Human), UniProt Q12809); assay: Test 6-1: inhibitory activity for hERG channel (auto patch clamp, Qpatch); format: cell-based; details: whole cell auto patch clamp, hERG-CHO cells; read-out: hERG inhibition IC50
How it was run: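 Whole-cell patch clamp on an automated system using CHO cells stably expressing human hERG (IKr); 15 s pulse interval. Four increasing compound concentrations applied cumulatively; mean peak tail current from last 3 stimulations per concentration used. IC50 from inhibition versus pre-compound current, fitted by Hill equation.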

[4] = Test 10: intracerebral transferability of rats (Kp,uu,brain); format: in vivo, rat; details: unbound drug concentration ratio brain/plasma
Method: Test 10: Evaluation of Intracerebral Transferability (Test for Intracerebral Transferability of Rats)
In this test, intracerebral transferability of the present compounds was evaluated by the following method. The present compounds were subcutaneously administered as a solution in saline, or orally administered as a suspension in methyl cellulose to 7-week-old SD or WKY rats. Plasma and brain were collected on 0.5 hours, 1 hour, or 2 hours after the administration to measure the drug concentrations in plasma and brain by LC-MS.
Binding rates of the present compound to plasma and brain protein were measured by equilibrium dialysis method.
Kp,uu,brain (unbound drug concentration ratio between brain/plasma) can be calculated by applying the compound concentrations in plasma and brain and the binding rates to plasma and brain protein obtained from the above test into the following formula. Kp,uu,brain=(Compound concentration in brain×(100−Binding rate to brain protein (%))/100)/(Compound concentration in plasma×(100−Binding rate to plasma protein (%))/100)

[5] = molecular target: T1, human 5-HT1A receptor; assay: Test 1: binding activity for human 5-HT1A receptor ([3H]8-OH-DPAT, CHO cell membrane fraction)
How it was run: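 Membranes incubated with [3H]8-OH-DPAT and compound for 60 min at room temperature, then filtered on polyethylenimine-coated glass-fibre plates and counted by liquid scintillation. IC50 from Hill analysis; Ki = IC50/(1+S/Kd), Kd from saturation binding on the same membranes.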

[6] = Test 4: metabolic stability test in human hepatic microsome; format: in vitro ADME; details: 0.1 mg/mL microsome, 0.1 μmol/L compound, 37° C., 30 minutes
How it was run: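 Compound at 0.1 μmol/L incubated 30 min at 37° C with human liver microsomes (0.1 mg/mL) and NADPH (3.2 mmol/L) in 25 mmol/L phosphate buffer, pH 7.4. Residual compound measured by LC-MS; stability (mL/min/mg protein) = −LN(residual ratio)/30/0.1.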

[7] = Test 5: predictive test of human half-life (monkey distribution volume, serum unbound fraction, microsomal stability); format: in vivo; details: predicted from cynomolgus monkey distribution volume (i.v.), serum unbound fraction and human hepatic microsome stability
Method: Test 5: Predictive Test of Human Half-Life
The present compound was intravenously administered to cynomolgus monkey as an aqueous solution in 0.01 mol/L hydrochloric acid. Blood was collected on 5 minutes, 15 minutes, 30 minutes, 1 hour, 2 hours, 4 hours, 6 hours, and 24 hours after the administration. Plasma was obtained from the collected blood, the drug concentration in the plasma was measured by LC-MS, and the distribution volume of monkey was calculated from the transition of the concentration.
The unbound fraction rate of the present compound in human or monkey serum was measured by equilibrium dialysis method.
The half-life in human was calculated according to the following formula using the results of the distribution volume of monkey, the unbound fraction rate in human or monkey serum, and the metabolic stability in human hepatic microsome obtained in Test 3.

[8] = molecular target: T3, human 5-HT2A receptor (Homo sapiens (Human), UniProt P28223); assay: Test 3: antagonist activity for human 5-HT2A receptor (aequorin luminescence, CHO-K1 cells); format: cell-based; details: CHO-K1 cells, 1 nmol/L 5-HT
How it was run: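 CHO-K1 cells transiently co-expressing aequorin, Gα16 and receptor; compound in DMSO added and luminescence recorded on FDSS/μCELL.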

[9] = molecular target: T3, human 5-HT2A receptor; assay: Test 1: binding activity for human 5-HT2A receptor ([3H]Ketanserin, CHO cell membrane fraction)
How it was run: as §1

[10] = molecular target: T2, hERG channel; assay: Test 6-2: inhibitory activity for hERG channel (auto patch clamp, Qube); format: cell-based; details: Test 6-2, hERG-CHO cells, whole cell patch clamp; read-out: hERG inhibition IC50
Method: Extracellular fluid: 2 mmol/L CaCl2, 1 mmol/L MgCl2, 10 mmol/L HEPES, 4 mmol/L KCl, 145 mmol/L NaCl, 10 mmol/L Glucose
(Measurement of Current Value and Data Analysis)
The cell suspension, the extracellular fluid, the intracellular fluid, and the measurement plate were set in the auto patch clamp system, and hERG current was measured by whole cell patch clamp method. […] Each pulse interval was 15 seconds. […] The test was carried out by applying incrementally 4 concentrations of each test compound, and the average of the maximum peak tail currents which were obtained from the last 3 stimulations in each concentration was determined as the evaluated data. Based on the current inhibition rate for a pre-applied current at each concentration of each test compound, IC50 value was calculated by Hill equation with the software.

T1 sequence (P08908 whole entry): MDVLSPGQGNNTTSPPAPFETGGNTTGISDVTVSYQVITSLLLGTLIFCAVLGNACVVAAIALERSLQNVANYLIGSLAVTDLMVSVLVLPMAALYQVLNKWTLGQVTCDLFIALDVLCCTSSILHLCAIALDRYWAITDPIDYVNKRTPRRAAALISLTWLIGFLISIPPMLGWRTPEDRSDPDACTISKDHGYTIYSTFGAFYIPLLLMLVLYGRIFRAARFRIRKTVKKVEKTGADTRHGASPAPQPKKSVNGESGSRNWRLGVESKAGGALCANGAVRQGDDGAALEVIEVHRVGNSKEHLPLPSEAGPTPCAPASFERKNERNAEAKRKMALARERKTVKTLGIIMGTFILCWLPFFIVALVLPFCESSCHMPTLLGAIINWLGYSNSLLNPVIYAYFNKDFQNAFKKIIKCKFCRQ
Sequence of human D2 receptor (P14416 whole entry): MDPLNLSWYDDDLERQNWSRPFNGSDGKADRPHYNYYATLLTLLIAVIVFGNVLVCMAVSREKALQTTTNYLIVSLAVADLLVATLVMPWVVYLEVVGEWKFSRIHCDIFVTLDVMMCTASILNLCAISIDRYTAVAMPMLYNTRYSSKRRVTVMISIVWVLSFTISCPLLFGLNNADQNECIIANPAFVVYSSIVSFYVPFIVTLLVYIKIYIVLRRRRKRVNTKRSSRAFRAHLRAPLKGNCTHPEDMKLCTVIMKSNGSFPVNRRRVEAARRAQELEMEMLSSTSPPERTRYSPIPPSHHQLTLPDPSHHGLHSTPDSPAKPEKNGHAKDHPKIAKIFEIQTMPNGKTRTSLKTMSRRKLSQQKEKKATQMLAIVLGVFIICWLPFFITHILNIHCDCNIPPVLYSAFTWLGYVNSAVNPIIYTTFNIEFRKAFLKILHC
T2 sequence (Q12809 whole entry): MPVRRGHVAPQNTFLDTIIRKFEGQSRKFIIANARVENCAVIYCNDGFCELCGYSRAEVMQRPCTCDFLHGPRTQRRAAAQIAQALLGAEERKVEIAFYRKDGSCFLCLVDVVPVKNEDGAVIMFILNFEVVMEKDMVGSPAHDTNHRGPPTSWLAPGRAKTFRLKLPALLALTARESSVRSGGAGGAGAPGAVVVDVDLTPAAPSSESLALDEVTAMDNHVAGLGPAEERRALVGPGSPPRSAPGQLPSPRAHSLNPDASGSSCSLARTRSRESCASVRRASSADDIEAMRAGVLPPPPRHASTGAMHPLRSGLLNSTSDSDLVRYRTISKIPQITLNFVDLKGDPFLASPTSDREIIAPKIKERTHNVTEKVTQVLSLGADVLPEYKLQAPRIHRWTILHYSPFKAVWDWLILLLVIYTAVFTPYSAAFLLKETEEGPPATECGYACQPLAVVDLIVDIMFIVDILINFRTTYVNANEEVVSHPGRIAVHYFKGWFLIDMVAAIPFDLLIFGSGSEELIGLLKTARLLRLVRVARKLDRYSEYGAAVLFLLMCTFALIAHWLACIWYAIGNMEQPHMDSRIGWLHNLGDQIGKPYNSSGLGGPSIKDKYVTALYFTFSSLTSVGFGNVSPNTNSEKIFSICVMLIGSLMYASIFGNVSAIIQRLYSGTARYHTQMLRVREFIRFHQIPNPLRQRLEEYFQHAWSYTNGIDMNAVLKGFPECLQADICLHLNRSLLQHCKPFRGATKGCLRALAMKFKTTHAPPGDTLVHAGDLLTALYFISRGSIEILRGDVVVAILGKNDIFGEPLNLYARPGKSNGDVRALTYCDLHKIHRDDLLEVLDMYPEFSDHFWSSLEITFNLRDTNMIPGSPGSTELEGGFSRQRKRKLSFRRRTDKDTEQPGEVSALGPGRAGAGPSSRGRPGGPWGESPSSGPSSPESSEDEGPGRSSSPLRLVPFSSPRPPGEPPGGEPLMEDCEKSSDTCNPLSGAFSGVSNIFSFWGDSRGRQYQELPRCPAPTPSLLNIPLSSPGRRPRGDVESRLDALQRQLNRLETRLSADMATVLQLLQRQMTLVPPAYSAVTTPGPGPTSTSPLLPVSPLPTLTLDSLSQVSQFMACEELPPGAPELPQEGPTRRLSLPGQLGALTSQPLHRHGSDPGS
T3 sequence (P28223 whole entry): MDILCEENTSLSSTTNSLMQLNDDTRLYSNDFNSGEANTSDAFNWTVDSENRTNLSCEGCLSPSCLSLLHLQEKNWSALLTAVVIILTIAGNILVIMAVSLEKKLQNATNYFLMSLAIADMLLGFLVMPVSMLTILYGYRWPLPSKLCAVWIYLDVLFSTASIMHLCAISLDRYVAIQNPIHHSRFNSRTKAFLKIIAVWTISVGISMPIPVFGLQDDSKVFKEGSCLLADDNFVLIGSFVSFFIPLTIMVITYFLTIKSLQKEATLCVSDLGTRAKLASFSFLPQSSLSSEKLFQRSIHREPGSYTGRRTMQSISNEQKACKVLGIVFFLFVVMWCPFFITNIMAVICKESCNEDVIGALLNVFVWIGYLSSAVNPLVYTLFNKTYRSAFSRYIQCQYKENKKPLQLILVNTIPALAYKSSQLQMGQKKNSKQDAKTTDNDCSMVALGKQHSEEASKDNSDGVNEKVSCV

| EC50 [1] | Emax at 10 µM [1] | Ki [2] | Kp, uu, brain [4] | Ki [5] | Metabolic stability in human hepatic microsome [6] | half-life [7] | SMILES | IC50 [3] | IC50 [8] | Ki [9] | IC50 [10] |
| --- | --- | --- | --- | --- | --- | --- | --- | --- | --- | --- | --- |
| 0.18 nM | 69% | 128 nM | 1.27 | 0.03 nM | 0.22 mL/min/mg protein | – | COc1cc2c(cn1)C(=O)N(CCN1CCN(c3nsc4ccccc34)CC1)CC2 [Example 2, 2-{2-[4-(1,2-Benzoisothiazol-3-yl)piperazin-1-yl]ethyl}-6-methoxy-3,4-dihydro-2,7-naphthyridin-1(2H)-one] | 2500 nM | – | – | – |
| 37 nM | 49% | 916 nM | – | 6.3 nM | <0.01 mL/min/mg protein | > 23 h | Cc1ncc2c(n1)CCN(CCN1CCC(c3noc4ccccc34)CC1)C2=O [Example 88, 6-{2-[4-(1,2-Benzoisoxazol-3-yl)piperidin-1-yl]ethyl}-2-methyl-7,8-dihydropyrido[4,3-d]pyrimidin-5(6H)-one] | 5600 nM | – | – | – |
| 76.2 nM | 43% | 738 nM | – | 5.19 nM | 0.065 mL/min/mg protein | – | Cc1nn(C)c2c1C(=O)N(CCN1CCN(c3noc4ccccc34)CC1)CCC2 [Example 92] | – | – | – | > 10000 nM |

More lines, now with the values behind:

| SMILES | EC50 [1] | Emax at 10 µM [1] | Ki [2] | Kp, uu, brain [4] | Ki [5] | Metabolic stability in human hepatic microsome [6] | half-life [7] | IC50 [3] | IC50 [8] | Ki [9] | IC50 [10] |
| --- | --- | --- | --- | --- | --- | --- | --- | --- | --- | --- | --- |
| Cc1c2c(nn1C)CCN(CCN1CCC(c3noc4ccccc34)CC1)C2=O [Example 37, 5-{2-[4-(1,2-Benzoisoxazol-3-yl)piperidin-1-yl]ethyl}-2,3-dimethyl-2,5,6,7-tetrahydro-4H-pyrazolo[4,3-c]pyridin-4-one] | 35 nM | 71% | 267 nM | – | 2.68 nM | 0.017 mL/min/mg protein | 8 h | 1000 nM | – | – | – |
| Cn1ncc2c1CCCN(CCN1CCN(c3noc4ccccc34)CC1)C2=O [Example 80] | – | 63% | – | – | – | 0.012 mL/min/mg protein | 10 h | 15400 nM | 55 nM | 2.8 nM | – |
| Cc1nn(C)c2c1C(=O)N(CCN1CCC(c3noc4ccccc34)CC1)CCC2 [Example 91] | 8.74 nM | 46% | 103 nM | – | 0.57 nM | <0.05 mL/min/mg protein | – | – | – | – | 1800 nM |
| Cn1ccc2c1CCCN(CCN1CCC(c3noc4ccccc34)CC1)C2=O [Example 103, 5-{2-[4-(1,2-Benzoisoxazol-3-yl)piperidin-1-yl]ethyl}-1-methyl-5,6,7,8-tetrahydropyrrolo[3,2-c]azepin-4(1H)-one] | 5.8 nM | 62% | 129 nM | – | 0.47 nM | <0.01 mL/min/mg protein | > 45 h | 1400 nM | – | – | – |
